Reference: patent US20080009418A1, “Selective Inhibitors” (Alchemia LTD., priority 2004, published 2008)

How the values were obtained:
Human δ-opioid (DOP) = target: T1, Human δ-opioid (DOP) (Homo sapiens, UniProt P41143); assay: Radioligand binding, human δ-opioid (DOP) membranes, FlashPlate, [3H]-Bremazocine; settings: compound at 10 μM; [3H]-Bremazocine
T1 construct: purchased Perkin Elmer Biosignal
Method in brief: (§1)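 Cloned human receptor membranes were coated onto FlashPlate wells and incubated with radioligand and compound (added from a 0.5 mM DMSO daughter plate) for 1 hour at room temperature in the dark. Scintillation counting gave percent inhibition, with DMSO defining total and reference ligand defining non-specific binding.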

Human κ-Opioid (KOP) = target: T2, Human κ-Opioid (KOP) (Homo sapiens, UniProt P41145); assay: Radioligand binding, human κ-opioid (KOP) membranes, filtration, [3H]-Diprenorphine; settings: compound at 10 μM; [3H]-Diprenorphine
T2 construct: purchased Perkin Elmer Biosignal
T2 sequence (P41145 whole entry): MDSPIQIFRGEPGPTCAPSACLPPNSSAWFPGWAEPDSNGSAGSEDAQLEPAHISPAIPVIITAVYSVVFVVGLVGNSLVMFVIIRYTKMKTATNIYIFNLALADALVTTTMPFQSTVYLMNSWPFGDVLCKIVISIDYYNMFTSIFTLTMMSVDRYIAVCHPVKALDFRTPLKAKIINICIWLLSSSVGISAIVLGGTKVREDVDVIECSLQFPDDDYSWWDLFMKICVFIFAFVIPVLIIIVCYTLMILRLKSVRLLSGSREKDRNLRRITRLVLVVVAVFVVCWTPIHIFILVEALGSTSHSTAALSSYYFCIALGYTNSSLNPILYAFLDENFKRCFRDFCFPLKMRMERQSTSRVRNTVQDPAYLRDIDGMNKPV
Method in brief: (§2)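 Filtration binding on cloned human receptor membranes (1 Unit/well), [125I]-Substance P for NK1 and [3H]-Diprenorphine for KOP, 1 h at room temperature. Filters PEI-presoaked, washed with cold 50 mM Tris-HCl pH 7.4, counted by scintillation; percent inhibition calculated, reference ligand defining non-specific binding.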

Human Melanocortin (MC3) = target: T3, Human Melanocortin (MC3) (Homo sapiens, UniProt P41968); assay: Radioligand binding, human melanocortin MC3 membranes, FlashPlate, [125I]-NDP-αMSH; settings: compound at 10 μM; [125I]-NDP-αMSH
T3 construct: purchased Perkin Elmer Biosignal
T3 sequence (P41968 whole entry): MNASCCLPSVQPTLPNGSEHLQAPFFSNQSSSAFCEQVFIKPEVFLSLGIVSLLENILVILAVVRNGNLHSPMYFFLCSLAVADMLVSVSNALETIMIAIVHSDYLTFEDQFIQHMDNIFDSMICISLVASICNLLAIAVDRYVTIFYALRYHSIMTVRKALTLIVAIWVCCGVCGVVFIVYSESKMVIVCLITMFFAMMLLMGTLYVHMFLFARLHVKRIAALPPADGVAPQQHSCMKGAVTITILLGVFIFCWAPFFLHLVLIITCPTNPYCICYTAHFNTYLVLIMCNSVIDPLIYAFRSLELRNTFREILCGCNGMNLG
Method in brief: as §1

Human Melanocortin (MC4) = target: T4, Human Melanocortin (MC4) (Homo sapiens, UniProt P32245); assay: Radioligand binding, human melanocortin MC4 membranes, FlashPlate, [125I]-NDP-αMSH; settings: compound at 10 μM; [125I]-NDP-αMSH
T4 construct: purchased Perkin Elmer Biosignal
T4 sequence (P32245 whole entry): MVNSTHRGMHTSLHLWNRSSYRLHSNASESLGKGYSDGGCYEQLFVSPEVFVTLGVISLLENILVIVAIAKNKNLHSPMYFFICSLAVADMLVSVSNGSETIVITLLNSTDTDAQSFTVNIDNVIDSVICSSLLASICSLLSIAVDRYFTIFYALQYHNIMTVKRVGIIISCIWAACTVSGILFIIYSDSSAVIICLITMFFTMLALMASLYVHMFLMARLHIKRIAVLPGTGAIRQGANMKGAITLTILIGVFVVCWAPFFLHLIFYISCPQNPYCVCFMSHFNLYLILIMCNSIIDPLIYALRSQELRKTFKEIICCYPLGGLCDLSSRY
Method in brief: as §1

Human melanocortin (MC5) = target: T5, Human melanocortin (MC5) (Homo sapiens, UniProt P33032); assay: Radioligand binding, human melanocortin MC5 membranes, FlashPlate, [125I]-NDP-αMSH; settings: compound at 10 μM; [125I]-NDP-αMSH
T5 construct: purchased Perkin Elmer Biosignal
T5 sequence (P33032 whole entry): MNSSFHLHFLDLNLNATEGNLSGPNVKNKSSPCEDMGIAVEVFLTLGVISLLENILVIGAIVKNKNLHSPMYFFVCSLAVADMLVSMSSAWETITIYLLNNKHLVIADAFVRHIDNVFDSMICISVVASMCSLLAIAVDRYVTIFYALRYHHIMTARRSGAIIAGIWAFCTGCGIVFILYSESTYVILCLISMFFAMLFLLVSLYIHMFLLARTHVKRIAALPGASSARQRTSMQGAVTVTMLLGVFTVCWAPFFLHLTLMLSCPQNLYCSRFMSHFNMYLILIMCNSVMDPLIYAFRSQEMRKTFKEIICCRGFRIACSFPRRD
Method in brief: as §1

[1] = target: T6, Human melanin-concentrating hormone (MCH1) (Homo sapiens, UniProt Q99705); assay: Radioligand binding, human melanin-concentrating hormone MCH1 membranes, FlashPlate, [125I]-S36057; settings: compound at 10 μM; [125I]-S36057
T6 construct: purchased Perkin Elmer Biosignal
T6 sequence (Q99705 whole entry): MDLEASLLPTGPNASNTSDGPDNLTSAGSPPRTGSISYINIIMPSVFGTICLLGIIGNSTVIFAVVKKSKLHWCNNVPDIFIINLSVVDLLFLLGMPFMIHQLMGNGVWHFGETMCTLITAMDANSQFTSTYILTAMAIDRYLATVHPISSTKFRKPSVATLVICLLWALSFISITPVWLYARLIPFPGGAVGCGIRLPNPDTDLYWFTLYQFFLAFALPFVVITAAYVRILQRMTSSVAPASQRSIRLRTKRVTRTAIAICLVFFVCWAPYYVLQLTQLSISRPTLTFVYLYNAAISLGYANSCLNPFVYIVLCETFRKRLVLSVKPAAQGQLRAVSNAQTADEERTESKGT
Method in brief: as §1

Human μ-opioid (MOP) = target: T7, Human μ-opioid (MOP) (Homo sapiens, UniProt P35372); assay: Radioligand binding, human μ-opioid (MOP) membranes, FlashPlate, [3H]-Naloxone; settings: compound at 10 μM; [3H]-Naloxone
T7 construct: purchased Perkin Elmer Biosignal
T7 sequence (P35372 whole entry): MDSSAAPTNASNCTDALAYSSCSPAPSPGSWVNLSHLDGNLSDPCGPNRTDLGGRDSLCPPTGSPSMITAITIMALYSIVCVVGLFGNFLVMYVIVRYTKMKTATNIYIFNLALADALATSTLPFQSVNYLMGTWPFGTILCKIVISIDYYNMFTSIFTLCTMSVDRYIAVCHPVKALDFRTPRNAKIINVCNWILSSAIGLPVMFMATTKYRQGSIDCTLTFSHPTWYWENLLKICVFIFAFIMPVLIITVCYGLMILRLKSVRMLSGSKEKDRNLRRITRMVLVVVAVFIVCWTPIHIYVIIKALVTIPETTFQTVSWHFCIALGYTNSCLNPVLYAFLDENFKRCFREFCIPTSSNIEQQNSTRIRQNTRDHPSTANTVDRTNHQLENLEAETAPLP
Method in brief: as §1

Human neurokinin (NK1) = target: T8, Human neurokinin (NK1) (Homo sapiens, UniProt P25103); assay: Radioligand binding, human neurokinin NK1 membranes, filtration, [125I]-Substance P; settings: compound at 10 μM; [125I]-Substance P
T8 construct: purchased Perkin Elmer Biosignal
T8 sequence (P25103 whole entry): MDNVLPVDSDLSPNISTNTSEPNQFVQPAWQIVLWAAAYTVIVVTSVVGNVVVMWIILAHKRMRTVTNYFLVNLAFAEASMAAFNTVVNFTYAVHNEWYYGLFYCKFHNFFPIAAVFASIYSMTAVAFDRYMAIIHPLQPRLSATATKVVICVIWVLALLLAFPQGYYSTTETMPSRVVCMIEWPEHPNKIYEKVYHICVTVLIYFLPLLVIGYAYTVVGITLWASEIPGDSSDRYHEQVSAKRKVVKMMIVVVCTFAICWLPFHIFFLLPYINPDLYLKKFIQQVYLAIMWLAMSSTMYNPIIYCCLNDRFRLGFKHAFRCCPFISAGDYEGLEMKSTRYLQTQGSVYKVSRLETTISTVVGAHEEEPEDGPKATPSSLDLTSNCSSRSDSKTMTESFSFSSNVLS
Method in brief: as §2

[2] = target: T9, Human neuropeptide Y (NPY-Y1) (Homo sapiens, UniProt P25929); assay: Radioligand binding, human neuropeptide Y NPY-Y1 membranes, FlashPlate, [125I]-PYY; settings: compound at 10 μM; [125I]-PYY
T9 construct: purchased Perkin Elmer Biosignal
T9 sequence (P25929 1-384): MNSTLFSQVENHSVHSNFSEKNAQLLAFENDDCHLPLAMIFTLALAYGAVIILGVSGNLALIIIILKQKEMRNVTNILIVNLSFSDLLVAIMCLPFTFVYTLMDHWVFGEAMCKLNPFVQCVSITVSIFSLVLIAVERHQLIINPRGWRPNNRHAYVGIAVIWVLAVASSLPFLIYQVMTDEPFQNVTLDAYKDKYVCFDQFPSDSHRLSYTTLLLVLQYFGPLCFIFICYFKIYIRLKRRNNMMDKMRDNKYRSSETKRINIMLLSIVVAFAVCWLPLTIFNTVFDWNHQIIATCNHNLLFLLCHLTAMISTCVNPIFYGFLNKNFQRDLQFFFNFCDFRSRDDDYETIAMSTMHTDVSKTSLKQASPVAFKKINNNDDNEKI
Method in brief: as §1

Human opioid (ORL1) = target: T10, Human opioid (ORL1) (Homo sapiens, UniProt P41146); assay: Radioligand binding, human opioid ORL1 membranes, FlashPlate, [125I]-Nociceptin; settings: compound at 10 μM; [125I]-Nociceptin
T10 construct: purchased Perkin Elmer Biosignal
T10 sequence (P41146 whole entry): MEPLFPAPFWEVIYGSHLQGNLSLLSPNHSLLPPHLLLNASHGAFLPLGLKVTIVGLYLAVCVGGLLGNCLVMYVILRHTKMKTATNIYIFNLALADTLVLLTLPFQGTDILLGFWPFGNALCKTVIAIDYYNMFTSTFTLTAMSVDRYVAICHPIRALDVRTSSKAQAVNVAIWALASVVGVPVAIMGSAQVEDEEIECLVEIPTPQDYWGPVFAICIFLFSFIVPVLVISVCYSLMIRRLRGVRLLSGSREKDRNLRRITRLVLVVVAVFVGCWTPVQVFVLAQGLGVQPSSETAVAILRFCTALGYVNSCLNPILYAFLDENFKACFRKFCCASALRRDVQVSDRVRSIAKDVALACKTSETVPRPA
Method in brief: as §1

Mouse urotensin (mUR2) = target: T11, Mouse urotensin (mUR2) (Mus musculus, UniProt Q8VIH9); assay: Radioligand binding, mouse urotensin mUR2 membranes, FlashPlate, [125I]-Urotensin II; settings: compound at 10 μM; [125I]-Urotensin II
T11 construct: purchased Perkin Elmer Biosignal
T11 sequence (Q8VIH9 1-385): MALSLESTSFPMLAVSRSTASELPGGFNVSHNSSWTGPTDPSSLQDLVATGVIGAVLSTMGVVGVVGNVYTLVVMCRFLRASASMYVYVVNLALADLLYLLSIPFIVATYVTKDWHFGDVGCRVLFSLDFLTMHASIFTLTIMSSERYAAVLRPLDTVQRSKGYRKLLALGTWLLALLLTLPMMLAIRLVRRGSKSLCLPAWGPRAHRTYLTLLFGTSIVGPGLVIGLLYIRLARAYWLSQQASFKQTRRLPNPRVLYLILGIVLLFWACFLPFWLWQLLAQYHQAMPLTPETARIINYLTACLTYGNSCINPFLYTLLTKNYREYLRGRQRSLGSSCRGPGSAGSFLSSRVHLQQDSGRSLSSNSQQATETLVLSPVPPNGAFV
Method in brief: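 Cloned mouse urotensin (mUR2) receptor membranes from Perkin Elmer Biosignal were immobilized in FlashPlate microplates using a proprietary coating. Each well got 19.5 μl buffer, then 0.5 μl of DMSO, reference ligand, or compound. Adding 5 μl of [125I]-Urotensin II, diluted to 5× final concentration in binding buffer, started binding. Plates were sealed with TopSeal-A and incubated 1 hour at room temperature in the dark. Wells were counted for 30 seconds each on a TopCount after a 60-second delay, and percentage inhibition was calculated.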

T1 sequence (P41143 whole entry): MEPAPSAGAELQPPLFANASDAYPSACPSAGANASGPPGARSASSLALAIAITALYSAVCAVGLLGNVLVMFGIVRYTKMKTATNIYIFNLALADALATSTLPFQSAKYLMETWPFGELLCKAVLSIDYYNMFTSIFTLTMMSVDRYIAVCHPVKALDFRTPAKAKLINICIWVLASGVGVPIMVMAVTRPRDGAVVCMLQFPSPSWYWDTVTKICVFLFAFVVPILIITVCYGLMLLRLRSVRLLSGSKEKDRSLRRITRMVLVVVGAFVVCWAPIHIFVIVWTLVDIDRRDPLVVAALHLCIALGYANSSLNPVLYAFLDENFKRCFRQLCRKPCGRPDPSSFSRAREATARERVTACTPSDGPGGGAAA

COC[C@H]1OC(OCc2cccc(O)c2)[C@H](NC(=O)CCCNC(=N)N)[C@@H](OCc2ccc(-c3ccccc3)cc2)[C@@H]1O (stereo partly shown) [compound 144]
A1 radioligand binding, percentage inhibition (Human δ-opioid (DOP)): − (“−” indicates less than 50% inhibition at 10 μM) | A2 radioligand binding, percentage inhibition (Human κ-Opioid (KOP)): − (“−” indicates less than 50% inhibition at 10 μM) | A3 radioligand binding, percentage inhibition (Human Melanocortin (MC3)): − (“−” indicates less than 50% inhibition at 10 μM) | A4 radioligand binding, percentage inhibition (Human Melanocortin (MC4)): − (“−” indicates less than 50% inhibition at 10 μM) | A5 radioligand binding, percentage inhibition (Human melanocortin (MC5)): + (“+” indicates greater than 50% inhibition at 10 μM) | A6 radioligand binding, percentage inhibition [1]: + (“+” indicates greater than 50% inhibition at 10 μM) | A7 radioligand binding, percentage inhibition (Human μ-opioid (MOP)): + (“+” indicates greater than 50% inhibition at 10 μM) | A8 radioligand binding, percentage inhibition (Human neurokinin (NK1)): + (“+” indicates greater than 50% inhibition at 10 μM) | A9 radioligand binding, percentage inhibition [2]: − (“−” indicates less than 50% inhibition at 10 μM) | A10 radioligand binding, percentage inhibition (Human opioid (ORL1)): − (“−” indicates less than 50% inhibition at 10 μM) | A11 radioligand binding, percentage inhibition (Mouse urotensin (mUR2)): − (“−” indicates less than 50% inhibition at 10 μM)

COC[C@H]1OC(OCc2cccc(O)c2)[C@H](NC(=O)CCNC(=N)N)[C@@H](OCc2ccc(Cl)cc2)[C@@H]1O (stereo partly shown) [compound 145]
A1 radioligand binding, percentage inhibition (Human δ-opioid (DOP)): − (“−” indicates less than 50% inhibition at 10 μM) | A2 radioligand binding, percentage inhibition (Human κ-Opioid (KOP)): − (“−” indicates less than 50% inhibition at 10 μM) | A3 radioligand binding, percentage inhibition (Human Melanocortin (MC3)): − (“−” indicates less than 50% inhibition at 10 μM) | A4 radioligand binding, percentage inhibition (Human Melanocortin (MC4)): − (“−” indicates less than 50% inhibition at 10 μM) | A5 radioligand binding, percentage inhibition (Human melanocortin (MC5)): − (“−” indicates less than 50% inhibition at 10 μM) | A6 radioligand binding, percentage inhibition [1]: + (“+” indicates greater than 50% inhibition at 10 μM) | A7 radioligand binding, percentage inhibition (Human μ-opioid (MOP)): − (“−” indicates less than 50% inhibition at 10 μM) | A8 radioligand binding, percentage inhibition (Human neurokinin (NK1)): − (“−” indicates less than 50% inhibition at 10 μM) | A9 radioligand binding, percentage inhibition [2]: − (“−” indicates less than 50% inhibition at 10 μM) | A10 radioligand binding, percentage inhibition (Human opioid (ORL1)): − (“−” indicates less than 50% inhibition at 10 μM) | A11 radioligand binding, percentage inhibition (Mouse urotensin (mUR2)): − (“−” indicates less than 50% inhibition at 10 μM)

CO[C@H]1[C@H](O)[C@@H](COCc2cccc(O)c2)OC(OCc2ccc(-c3ccccc3)cc2)[C@@H]1NC(=O)CNC(=N)N (stereo partly shown) [compound 146]
A1 radioligand binding, percentage inhibition (Human δ-opioid (DOP)): − (“−” indicates less than 50% inhibition at 10 μM) | A2 radioligand binding, percentage inhibition (Human κ-Opioid (KOP)): + (“+” indicates greater than 50% inhibition at 10 μM) | A3 radioligand binding, percentage inhibition (Human Melanocortin (MC3)): − (“−” indicates less than 50% inhibition at 10 μM) | A4 radioligand binding, percentage inhibition (Human Melanocortin (MC4)): − (“−” indicates less than 50% inhibition at 10 μM) | A5 radioligand binding, percentage inhibition (Human melanocortin (MC5)): + (“+” indicates greater than 50% inhibition at 10 μM) | A6 radioligand binding, percentage inhibition [1]: − (“−” indicates less than 50% inhibition at 10 μM) | A7 radioligand binding, percentage inhibition (Human μ-opioid (MOP)): − (“−” indicates less than 50% inhibition at 10 μM) | A8 radioligand binding, percentage inhibition (Human neurokinin (NK1)): + (“+” indicates greater than 50% inhibition at 10 μM) | A9 radioligand binding, percentage inhibition [2]: − (“−” indicates less than 50% inhibition at 10 μM) | A10 radioligand binding, percentage inhibition (Human opioid (ORL1)): − (“−” indicates less than 50% inhibition at 10 μM) | A11 radioligand binding, percentage inhibition (Mouse urotensin (mUR2)): − (“−” indicates less than 50% inhibition at 10 μM)

CO[C@H]1[C@H](O)[C@@H](COCc2cccc(O)c2)OC(OCc2ccc(-c3ccccc3)cc2)[C@@H]1NC(=O)CCNC(=N)N (stereo partly shown) [compound 147]
A1 radioligand binding, percentage inhibition (Human δ-opioid (DOP)): − (“−” indicates less than 50% inhibition at 10 μM) | A2 radioligand binding, percentage inhibition (Human κ-Opioid (KOP)): + (“+” indicates greater than 50% inhibition at 10 μM) | A3 radioligand binding, percentage inhibition (Human Melanocortin (MC3)): − (“−” indicates less than 50% inhibition at 10 μM) | A4 radioligand binding, percentage inhibition (Human Melanocortin (MC4)): + (“+” indicates greater than 50% inhibition at 10 μM) | A5 radioligand binding, percentage inhibition (Human melanocortin (MC5)): + (“+” indicates greater than 50% inhibition at 10 μM) | A6 radioligand binding, percentage inhibition [1]: + (“+” indicates greater than 50% inhibition at 10 μM) | A7 radioligand binding, percentage inhibition (Human μ-opioid (MOP)): + (“+” indicates greater than 50% inhibition at 10 μM) | A8 radioligand binding, percentage inhibition (Human neurokinin (NK1)): + (“+” indicates greater than 50% inhibition at 10 μM) | A9 radioligand binding, percentage inhibition [2]: − (“−” indicates less than 50% inhibition at 10 μM) | A10 radioligand binding, percentage inhibition (Human opioid (ORL1)): − (“−” indicates less than 50% inhibition at 10 μM) | A11 radioligand binding, percentage inhibition (Mouse urotensin (mUR2)): − (“−” indicates less than 50% inhibition at 10 μM)

CO[C@H]1[C@H](O)[C@@H](COCc2cccc(O)c2)OC(OCc2ccc(-c3ccccc3)cc2)[C@@H]1NC(=O)CCCN (stereo partly shown) [compound 148]
A1 radioligand binding, percentage inhibition (Human δ-opioid (DOP)): − (“−” indicates less than 50% inhibition at 10 μM) | A2 radioligand binding, percentage inhibition (Human κ-Opioid (KOP)): − (“−” indicates less than 50% inhibition at 10 μM) | A3 radioligand binding, percentage inhibition (Human Melanocortin (MC3)): − (“−” indicates less than 50% inhibition at 10 μM) | A4 radioligand binding, percentage inhibition (Human Melanocortin (MC4)): − (“−” indicates less than 50% inhibition at 10 μM) | A5 radioligand binding, percentage inhibition (Human melanocortin (MC5)): − (“−” indicates less than 50% inhibition at 10 μM) | A6 radioligand binding, percentage inhibition [1]: − (“−” indicates less than 50% inhibition at 10 μM) | A7 radioligand binding, percentage inhibition (Human μ-opioid (MOP)): − (“−” indicates less than 50% inhibition at 10 μM) | A8 radioligand binding, percentage inhibition (Human neurokinin (NK1)): + (“+” indicates greater than 50% inhibition at 10 μM) | A9 radioligand binding, percentage inhibition [2]: − (“−” indicates less than 50% inhibition at 10 μM) | A10 radioligand binding, percentage inhibition (Human opioid (ORL1)): − (“−” indicates less than 50% inhibition at 10 μM) | A11 radioligand binding, percentage inhibition (Mouse urotensin (mUR2)): − (“−” indicates less than 50% inhibition at 10 μM)
